Consider four compounds from ChEMBL document CHEMBL1155632, “Sesquiterpenes from the basidiomycete Omphalotus illudens” (J Nat Prod, 2000).

Structures are written as SMILES. Calls of active or inactive are those of the source. The rule behind the calls is not given here.

In data set [1] the test system is Pseudomonas aeruginosa. The data set can be described thus: Antibacterial activity against Pseudomonas aeruginosa ATCC 27853. It is filed as functional, organism-based.
In data set [2] the test system is Staphylococcus aureus. The data set can be described thus: Antibacterial activity against Staphylococcus aureus ATCC 29213. It is filed as functional, organism-based.
The test system of data set [3] is Escherichia coli. In words: Genotoxicity against Escherichia coli PQ37 at 50 ug/disk. Type of data set: toxicity, organism-based.
The test system of data set [4] is Candida albicans. In words: Antifungal activity against Candida albicans ATCC 32354. Type of data set: functional, organism-based.
Data set [5] concerns Bacillus subtilis. The data set can be described thus: Antibacterial activity against Bacillus subtilis ATCC 6633 at 10 ug/disk. It is filed as functional, organism-based.

Consider `C/C(C=O)=C1\[C@@H](O)C[C@]1(C)[C@H]1CC(C)(C)C[C@@H]1O` [ILLUDOSIN], for which the result in data set [1], in data set [2] and in data set [4] was inactive. The result in data set [3] was Active. The result in data set [5] was Active.

Consider `C/C(CO)=C1\[C@@H](O)C[C@]1(C)[C@H]1CC(C)(C)C[C@@H]1O`, for which the outcome in data set [1], in data set [2], in data set [4] and in data set [5] was inactive. Moreover, the Activity result in data set [3] is given as “Not Active”.

Take `C/C(C=O)=C1\C(=O)C[C@]1(C)[C@H]1CC(C)(C)CC1=O`: the result in data set [1], in data set [2], in data set [4] and in data set [5] was inactive. In addition, in data set [3], the Activity result was “Not Active”.

`CC1(C)C[C@H]2[C@@H](CC[C@@]2(C)O)[C@]2(C)CC2[C@H]1OC(=O)c1cc([N+](=O)[O-])cc([N+](=O)[O-])c1` (stereo not given in full): the outcome in data set [1], in data set [2], in data set [4] and in data set [5] was inactive. In addition, the Activity result in data set [3] is “Not Active”.
